The test system of data set [1] is HIV/EBOV pseudovirions (EBOV GP). It is filed as cell-based, Zaire Ebolavirus.
The test system of data set [2] is HIV/MARV pseudovirions (MARV GP). In words: microbe, parasite or virus in culture. It is filed as cell-based, Marburgvirus. The settings on record: Human immunodeficiency virus 1, A549, 48 h, read-out: IC50 for MARV.

Turning to `NC(=O)C1CCN(CC(O)COc2ccc3c(C4CC4)cc(=O)oc3c2)CC1` (centres unmarked) [Compound 55, 1-(3-((4-cyclopropyl-2-oxo-2H-chromen-7-yl)oxy)-2-hydroxypropyl)piperidine-4-carboxamide], in data set [1], the “antiviral activity (anti-filovirus, words)” value was “lost most of the antiviral activity”.

With `Cc1c(Cc2ccc(OC(F)(F)F)cc2)c(=O)oc2cc(OCC(O)CNc3nccs3)ccc12` (centres unmarked) [Compound 56, 7-(2-hydroxy-3-(thiazol-2-ylamino)propoxy)-4-methyl-3-(4-(trifluoromethoxy)benzyl)-2H-chromen-2-one], the “antiviral activity (anti-filovirus, words)” value in data set [1] is recorded as “strong activity”. The “cytotoxicity” value with A549 cells is reported as “low cytotoxicity”.

As to `Cc1c(Cc2ccccc2)c(=O)oc2cc(OCC(O)CNCCc3ccncc3)ccc12` (centres unmarked) [Compound 13, 3-benzyl-7-(2-hydroxy-3-((2-(pyridin-4-yl)ethyl)amino)propoxy)-4-methyl-2H-chromen-2-one], the “antiviral activity against EBOV” value in data set [1] is “best inhibitory activity on EBOV entry”.

As for `Cc1c(Cc2ccc(OC(F)(F)F)cc2)c(=O)oc2cc(OCC(O)CN3CCC(C(N)=O)CC3)ccc12` (centres unmarked) [Compound 32, 1-(2-hydroxy-3-((4-methyl-2-oxo-3-(4-(trifluoromethoxy)benzyl)-2H-chromen-7-yl)oxy)propyl)piperidine-4-carboxamide], the “antiviral activity against EBOV” value in data set [1] is recorded as “strongest antiviral activity against EBOV”. In data set [2], the IC50 (in general, the concentration at which inhibition is half-maximal) is 1500 nM. Also, the “cytotoxicity” value in the data set on A549 cells is given as “low cytotoxicity”.

For `Cc1cc(=O)oc2cc(OCC(O)CN3CCC(C(N)=O)CC3)ccc12` (centres unmarked) [Compound 19, 1-(2-hydroxy-3-((4-methyl-2-oxo-2H-chromen-7-yl)oxy)propyl)piperidine-4-carboxamide], the “antiviral activity (anti-filovirus, words)” value in data set [1] was “lost most of the activity”.

Source of the values: article PMC7529935 (European journal of medicinal chemistry, 2020).
